Test results: US11890268B2, “Dibenzothiophene derivatives and methods of treating cancer therewith” (Saint Louis University, priority 2018, dated 2024)

Legend:
[1] = system: MDA-MB-231 breast cancer cells; assay: MTS cell viability assay with UV-A irradiation; format: cell-based
Experimental: (§1) MDA-MB-231 breast cancer cells were plated at 10,000 cells/well on three 96 well plates. After 24 hours incubation at 37° C., varying concentrations of MA-3 and MA-4 were added and incubated for 1 hour at 37° C. on only two plates (pre-UV and no UV exposure). One plate with cells were then left at room temperature covered for 30 min (no UV). The second plate (pre-UV) and the third plate (post-UV) were exposed to UV-A in a Luzchem photoreactor with 8 LZC-UVA lamps for 30 min. Varying concentrations of MA-3 and MA-4 were added to post UV exposure plate after irradiation. Plates were then incubated for 24 hours at 37° C. and then a MTS cell viability assay (Promega) was performed. Cell viability assay was run on a Flexstation3 mulitmode plate reader and percent viability was calculated. Statistical analyses were performed using GraphPad Prism program.

[2] = Deoxygenation of sulfoxide to sulfide on UV-A exposure in plate well, HPLC; format: physicochemical; settings: for Sulfide (MA-4) Concentration: addition of drug pre-UV exposure, n = 4; for Sulfide Concentration 30 Minutes After UV Exposure: Table 3
Experimental: as §1
The concentrations were determined using HPLC injections on Agilent Technologies 1200 series HPLC—quaternary pump. The experiment was carried out in two trials consisting of duplicate studies.

CC(=O)OCc1ccc2sc3ccc(COC(C)=O)cc3c2c1 [MA-4]
% cell viability ([1]; any of the UV-exposure conditions (no UV, pre-UV, post-UV)): did not decrease % cell viability

CC(=O)OCc1ccc2c(c1)c1cc(COC(C)=O)ccc1[s+]2[O-] [MA-3, 5-oxo-2,8-diacetoxymethyldibenzothiophene]
% cell viability ([1]; compound added pre-UV exposure, cells irradiated with UV-A): decreases % cell viability
% cell viability ([1]; compound added pre-UV exposure, cells irradiated with UV-A, listed as 5-oxo-2,8-diacetoxymethyldibenzothiophene): a decrease in % cell viability
Sulfide (MA-4) Concentration ([2]; Concentration of MA-3 10 μM): 9.653 ± 0.170 µM
Sulfide (MA-4) Concentration ([2]; Concentration of MA-3 100 μM): 90.02 ± 4.87 µM
Sulfide Concentration 30 Minutes After UV Exposure ([2]; starting concentration 100 μM): 90 ± 3 µM

O=S(=O)(Oc1ccccc1)c1ccc2c(c1)c1cc(-c3ccc(-c4ccccc4)cc3)ccc1[s+]2[O-] (stereo not shown) [Compound 5a]
Sulfide Concentration 30 Minutes After UV Exposure ([2]; starting concentration 10 μM): 3.3 ± 1.4 µM
